The values that follow come from publication PMC12564639, “Discovery of a Novel Anticoagulant Cystine Knot Peptide from Spider Venom Gland Transcriptome” (International Journal of Molecular Sciences, 2025).

Peptide text beside a SMILES is read from it.

The subject of data set [1] is human plasma, intrinsic clotting cascade. As to the kind of experiment: Activated partial thromboplastin time (APTT). It is filed as biochemical. The conditions noted are these: GC38 10 μM; human plasma 20 μL, pre-incubation 5 min at 37 °C, APTT reagent 5 min, CaCl2; scattered light; mean, n = 3. The protocol:
APTT and PT were measured with commercially available kits according to the manufacturer’s instructions. For APTT determination, 20 μL human plasma was pre-incubated with GC38 (0.1, 1, and 10 µM) at 37 °C for 5 min, and then 30 μL APTT reagent was added and incubated for another 5 min. Subsequently, 40 μL pre-warmed CaCl2 (37 °C) was added to initiate the intrinsic clotting cascade. The intensity of the scattered light was monitored until the signals reached saturation. For PT determination, 20 μL human plasma was pre-incubated with GC38 (0.1, 1, and 10 µM) at 37 °C for 5 min. Then, 75 μL PT reagent was added to initiate the extrinsic clotting cascade. The intensity of the scattered light was monitored until the signals reached saturation. The coagulation time (APTT or PT) was defined as the time point at which the scattered light signal reached the midpoint between the baseline and maximum amplitude. All concentrations were tested in triplicate. Results are shown as mean values, and the time at maximum reactive velocity was also reported.

Data set [2] has as its system stasis-induced deep vein thrombosis in mice. As to the kind of experiment: Stasis-induced deep vein thrombosis (DVT) model. Type of data set: in vivo, C57BL/6J mice. The protocol: The C57BL/6J mice (male, 6–8 weeks old) were purchased from Beijing Vital River Laboratory Animal Technology Co., Ltd. (Beijing, China). All animal studies were performed under the approval of the Ethics Committee of the Laboratory Animal Welfare of the Kunming Institute of Zoology, Chinese Academy of Sciences (IACUC-RE-2025-03-010).
Male C57BL/6J mice (6–8 weeks old, n = 10 per group) were randomized to receive intravenous injections of PBS (vehicle control), GC38 (2 or 4 mg/kg), or heparin sodium (1000 U/kg) for the establishment of stasis-induced DVT models. […] Briefly, mice were anesthetized, and the IVC was exposed through a midline abdominal incision. […] Finally, the abdominal wall was closed carefully. At 24 h post-ligation, the IVC was resected, and thrombus formation was quantified by measuring the weight of the thrombi (n = 5). HE staining analysis of thrombus sections was performed to evaluate the extent of thrombosis (n = 5).

Data set [3] concerns mouse red blood cells (RBCs). As to the kind of experiment: Hemolysis assay. Type of data set: cell-based. The conditions noted are these: 50 μM; RBCs 1 × 10^8/mL in PBS, 37 °C, 30 min; absorbance 450 nm; versus 1% Triton X-100; n = 3. The protocol:
The hemolytic activity of GC38 was assessed using mouse red blood cells (RBCs). Fresh […] blood was centrifuged at 1500 rpm for 5 min to isolate RBCs, followed by three washes with sterile PBS and resuspension in PBS with a density of 1 × 10^8 RBCs/mL. GC38 was diluted in PBS to concentrations ranging from 3.125 to 50 μM. For the assay, 100 µL of the RBC suspension was mixed with an equal volume of GC38 solution and incubated at 37 °C for 30 min. After incubation, the samples were centrifuged at 1500 rpm for 5 min to pellet intact RBCs. The absorbance of the supernatant was measured at 450 nm using a multi-mode microplate reader (BioTek Synergy™ H1, Winooski, VT, USA). PBS and 1% Triton X-100-treated groups served as negative and positive controls, respectively. The percentage of hemolysis was calculated by comparing the absorbance values of the samples to those of the controls. All concentrations underwent triplicate testing, with results presented as mean ± SEM.

Data set [4] deals with murine macrophage (RAW264.7). As to the kind of experiment: Cytotoxicity (CCK-8), RAW264.7. Type of data set: cell-based. Details: cytotoxicity RAW264.7: dose or concentration left out as unconfirmed. The conditions noted are these: 24 h, n = 3. The protocol: The cytotoxicity of GC38 was evaluated in human embryonic kidney cells (HEK293T), human keratinocytes (HaCaT), and murine macrophage (RAW264.7) cell lines. The cells were from Kunming Cell Bank, Chinese Academy of Sciences. HEK293T and HaCaT cells were cultured in DMEM supplemented with 10% fetal bovine serum (FBS) and 1% penicillin-streptomycin, and RAW264.7 cells were maintained in RPMI 1640 containing 10% FBS and 1% penicillin–streptomycin, with all cell lines incubated at 37 °C under 5% CO2. For cytotoxicity assessment, cells were seeded at a density of 1 × 10^5 cells per well in 96-well plates and incubated for 12 h. […] After 24 h incubation, cell viability was determined using the CCK-8 assay (10 μL/well). Absorbance was measured at 450 nm using a multi-mode microplate reader (BioTek Synergy™ H1, Winooski, VT, USA). Untreated cells and cells treated with 10% DMSO served as negative and positive controls, respectively. Viability percentages were calculated relative to the untreated control. All experiments were conducted in triplicate, and data were expressed as mean ± SEM.

As for `CSCC[C@@H]1NC(=O)[C@H](CC(N)=O)NC(=O)CNC(=O)CNC(=O)[C@H](Cc2c[nH]cn2)NC(=O)[C@H](CCCNC(=N)N)NC(=O)CNC(=O)[C@@H]2CSSC[C@@H]3NC(=O)[C@H](CCCNC(=N)N)NC(=O)[C@H](C)NC(=O)CNC(=O)[C@H](CCCCN)NC(=O)CNC(=O)[C@H](CO)NC(=O)[C@@H](NC(=O)CN)CSSC[C@H](NC(=O)[C@H](CSSC[C@@H](C(=O)N[C@@H](CCC(=O)O)C(=O)N[C@@H](Cc4c[nH]c5ccccc45)C(=O)N[C@@H](CC(N)=O)C(=O)N[C@@H](Cc4c[nH]c5ccccc45)C(=O)N[C@@H](CCCCN)C(=O)N[C@H](C(=O)NCC(=O)O)[C@@H](C)O)NC(=O)[C@H](CO)NC(=O)[C@H](CCCCN)NC(=O)[C@H](Cc4ccc(O)cc4)NC1=O)NC(=O)[C@H](CCCCN)NC(=O)[C@H](CO)NC(=O)[C@@H]1CCCN1C(=O)[C@H](C)NC3=O)C(=O)N[C@@H](CO)C(=O)NCC(=O)N[C@@H](CC(C)C)C(=O)N[C@@H](CO)C(=O)N2` [GC38] (HELM PEPTIDE1{G.C.S.G.K.G.A.R.C.A.P.S.K.C.C.S.G.L.S.C.G.R.H.G.G.N.M.Y.K.S.C.E.W.N.W.K.T.G}$PEPTIDE1,PEPTIDE1,2:R3-15:R3|PEPTIDE1,PEPTIDE1,9:R3-20:R3|PEPTIDE1,PEPTIDE1,14:R3-31:R3$$$V2.0), in data set [1], the “APTT extension versus control” value is listed as 1.4 fold. Besides, the “reduction of thrombus wet weight versus vehicle control” value in data set [2] (GC38 4 mg/kg i.v., 24 h after IVC ligation, n = 5 per group) is reported as 64.0%. In data set [2] (HE staining, IVC sections, 24 h after ligation, n = 5), the “thrombus area (histology)” value was “decrease in thrombus area”. Also, the hemolytic activity entry in data set [3] is on record as “below 3%”. Besides, the “cell viability RAW264.7” value in data set [4] (50 μM, serum-free medium, CCK-8, 450 nm, relative to untreated control) is “greater than 95%”. In addition, the “cytotoxicity RAW264.7” value in data set [4] (CCK-8) is “negligible cytotoxicity”.
